Source: patent publication US7947647B2, “Synthetic mimics of mammalian cell surface receptors: method and compositions” (The Penn State Research Foundation, priority 2004, dated 2011)
Where “and” joins values, the source holds several entries; their conditions need not be identical. Equal entries are not always repeated.

Experiments:
[1] = tested on: Jurkat lymphocytes; experiment: Uptake of AcGFP-oligohistidine fusion proteins (flow cytometry); type: cell-based, human; details: receptor 10 μM preloaded 1 h, protein 3.2 μM, Ni(OAc)2 100 μM
Description: FIG. 25. Analysis of cellular uptake of His-tagged AcGFP proteins by flow cytometry. Each bar represents the average fluorescence of 10,000 cells. Unless otherwise noted, cellular plasma membranes of Jurkat lymphocytes were preloaded with receptor 1 (10 μM) for 1 h at 37° C., cells were washed with fresh media, and His-tagged AcGFP (3.2 μM)/metal diacetate solution (100 μM) was added for 4 h at 37° C. Prior to analysis, cells were washed with NTA (400 μM, 30 min) in PBS (pH 7.4) to remove bound surface protein. Panel A: Dose dependence of receptor-mediated uptake. Premix conditions: a solution containing receptor 1, Ni(OAc)2, and AcGFP(His)10 was added to cells for 4 h. Panel B: Dependence on [Ni(OAc)2]. Panel C: Omission control experiments. Panel D; Uptake of (His)6 and (His)10 fusion proteins promoted by different metal diacetates.
Preload conditions: To Jurkat lymphocytes (7×10^5) in RPMI media (0.5 mL) was added synthetic receptor 1 (typical final [Receptor 1]=10 μM) in DMSO (final [DMSO]=1%). These cells were incubated at 37° C. for 1 h to load the receptor into cellular plasma membranes. The cells were washed with RPMI media (0.5 mL) to remove unincorporated receptor/DMSO and resuspended in fresh media (87.6 μL). […]

[2] = tested on: Jurkat lymphocytes; type: cell-based
Description: Analysis of cytotoxicity of protein delivery.
To examine the toxicity of this metal acetate and protein delivery, cellular viability was examined by flow cytometry. In these experiments, Jurkat lymphocytes were treated with receptor 1 (10 μM, 1 h), followed by AcGFP(His)10 (3.2 μM), and Ni(OAc)2 (100 μM, 4 h) to enhance protein uptake by 600-fold. Cells were washed with disodium NTA to remove cell surface protein and were cultured for an additional 48 h. Cellular viability was determined by light scattering and staining the nuclei of membrane-compromised dead cells with the fluorophore propidium iodide. Under these conditions, 97% of the cells were viable, compared with 98.6% of untreated controls, and no effects on cellular morphology were observed. Other studies have similarly reported low toxicity of nickel salts at <160 μM in cell culture.^14 By enabling common oligohistidine affinity tags to function as cell penetrating peptides, synthetic receptor 1 provides a potentially versatile new probe of cellular biology.

CC(C)CCC[C@@H](C)[C@H]1CC[C@H]2[C@@H]3CC=C4C[C@@H](NCCCCC(=O)NCCC(=O)NCCC(=O)NCCCCC(C(=O)O)N(CC(=O)O)CC(=O)O)CC[C@]4(C)[C@H]3CC[C@]12C (stereo partly drawn) [receptor 1, 4-Carboxy-3-(carboxymethyl)-22-[(3β)-cholest-5-en-3-ylamino]-10,14,18-trioxo-3,9,13,17-tetraazadocosan-1-oic acid]
intracellular delivery of AcGFP(His)10 above basal levels of endocytosis [1]: > 600 fold and 600 fold
effects on viability or cellular morphology [2]: No significant effects on viability or cellular morphology were observed
cells viable ([2]; human, 10 μM): 97%
